# Reference: patent US20230346777A1, “USE OF SGC ACTIVATORS FOR THE TREATMENT OF OPHTHALMOLOGIC DISEASES” (Bayer Aktiengesellschaft, priority 2020, published 2023)
# pEC50: −log10 of the molar value. Counter-ions that a name gives are not always drawn. Like-named read-outs stand apart in the source and are kept apart here.
# Legend:
# [1] = Pharmacokinetic parameters following intravenous and oral administration in dogs; assay type: in vivo, female beagles; details: for MRT / clearance / half-life: female, beagle, dog, plasma; for clearance: read-out: CLplasma (converted); for half-life: read-out: t½ (converted)
# Method: (§1) B-2. Determination of Pharmacokinetic Parameters Following Intravenous and Oral Administration
# (§2) The pharmacokinetic parameters of the compounds according to the invention were determined in male Wistar rats and/or in female beagles and/or in cynomolgus monkeys and/or in male CD-1 mice. Intravenous administration in the case of mice and rats was carried out by means of a species-specific plasma/DMSO formulation, and in the case of dogs and monkeys by means of a water/PEG400/ethanol formulation. In all species, oral administration of the dissolved substance was performed via gavage, based on a water/PEG400/ethanol formulation.
# (§3) An internal standard (which may also be a chemically unrelated substance) was added to the samples of the compounds of the invention, calibration samples and qualifiers, and there followed protein precipitation by means of acetonitrile in excess. Addition of a buffer solution matched to the LC conditions, and subsequent vortexing, was followed by centrifugation at 1000 g. The supernatant was analysed by LC-MS/MS using C18 reversed-phase columns and variable mobile phase mixtures. The substances were quantified via the peak heights or areas from extracted ion chromatograms of specific selected ion monitoring experiments.
# (§4) The plasma concentration/time plots determined were used to calculate the pharmacokinetic parameters such as AUC, Cmax, t1/2 (terminal half-life), F (bioavailability), MRT (mean residence time) and CL (clearance), by means of a validated pharmacokinetic calculation program.
# (§5) Since the substance quantification was performed in plasma, it was necessary to determine the blood/plasma distribution of the substance in order to be able to adjust the pharmacokinetic parameters correspondingly.
# (§6) For this purpose, a defined amount of substance was incubated in K3 EDTA whole blood of the species in question in a rocking roller mixer for 20 min. After centrifugation at 1000 g, the plasma concentration was measured (by means of LC-MS/MS; see above) and determined by calculating the ratio of the Cblood/Cplasma value.
# [2] = Pharmacokinetic parameters following intravenous and oral administration in rats; assay type: in vivo, male Wistar rats; details: for clearance / MRT / half-life: male, Wistar, rat, plasma; for clearance: read-out: CLplasma (converted); for MRT: read-out: MRT; for half-life: read-out: t½ (converted)
# Method: as §1, §2, §3, §4, §5, §6
# [3] = target: T1, recombinant guanylate cyclase reporter cell line (Rattus norvegicus, UniProt P20595); experiment: Effect on a recombinant guanylate cyclase reporter cell line; assay type: cell-based
# T1 construct: expressed in transfected cells; CHO by own knowledge of the cited Wunder et al. 2005
# T1 sequence (P20595 1-619): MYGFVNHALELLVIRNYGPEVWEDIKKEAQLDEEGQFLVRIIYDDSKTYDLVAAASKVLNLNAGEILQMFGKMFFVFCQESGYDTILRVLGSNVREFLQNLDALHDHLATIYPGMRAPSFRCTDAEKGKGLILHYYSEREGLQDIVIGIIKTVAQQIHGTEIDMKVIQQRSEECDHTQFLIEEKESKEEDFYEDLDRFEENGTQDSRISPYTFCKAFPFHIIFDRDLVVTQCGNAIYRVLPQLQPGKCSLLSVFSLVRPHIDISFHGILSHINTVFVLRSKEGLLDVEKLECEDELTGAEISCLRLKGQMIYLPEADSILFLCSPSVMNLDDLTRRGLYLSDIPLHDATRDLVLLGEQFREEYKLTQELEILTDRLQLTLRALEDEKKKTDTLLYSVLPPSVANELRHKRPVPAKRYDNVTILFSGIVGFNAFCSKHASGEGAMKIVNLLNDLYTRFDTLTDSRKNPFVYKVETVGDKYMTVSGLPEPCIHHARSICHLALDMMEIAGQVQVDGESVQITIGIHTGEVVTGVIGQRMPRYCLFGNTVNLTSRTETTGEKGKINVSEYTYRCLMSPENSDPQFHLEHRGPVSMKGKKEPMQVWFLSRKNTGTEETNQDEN
# T1 sequence (P19686 1-690 partner): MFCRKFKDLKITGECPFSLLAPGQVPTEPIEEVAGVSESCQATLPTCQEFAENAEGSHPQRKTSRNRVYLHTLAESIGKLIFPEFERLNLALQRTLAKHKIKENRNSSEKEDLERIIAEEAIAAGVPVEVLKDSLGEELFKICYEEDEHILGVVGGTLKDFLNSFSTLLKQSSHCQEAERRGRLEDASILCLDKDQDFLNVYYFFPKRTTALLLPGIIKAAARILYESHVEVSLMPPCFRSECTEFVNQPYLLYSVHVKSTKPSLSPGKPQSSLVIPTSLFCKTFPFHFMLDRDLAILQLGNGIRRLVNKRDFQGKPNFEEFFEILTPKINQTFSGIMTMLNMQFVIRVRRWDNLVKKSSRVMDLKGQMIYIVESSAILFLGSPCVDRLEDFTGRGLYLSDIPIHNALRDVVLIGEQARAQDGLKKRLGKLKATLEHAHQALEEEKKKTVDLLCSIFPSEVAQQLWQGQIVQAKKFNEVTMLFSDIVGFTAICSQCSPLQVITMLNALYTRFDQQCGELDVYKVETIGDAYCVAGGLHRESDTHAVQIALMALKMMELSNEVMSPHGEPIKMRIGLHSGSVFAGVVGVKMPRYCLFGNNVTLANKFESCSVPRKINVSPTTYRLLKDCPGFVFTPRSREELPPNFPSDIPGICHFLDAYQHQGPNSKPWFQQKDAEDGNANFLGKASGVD
# Method: B-1. Effect on a Recombinant Guanylate Cyclase Reporter Cell Line
# The cellular activity of the compounds according to the invention was determined using a recombinant guanylate cyclase reporter cell line, as described in F. Wunder et al., Anal. Biochem. 339, 104-112 (2005).
# [4] = intravenous administration (i.v.)
MEC (minimum effective concentration) ([3]; hydrochloride) [nM],Compound,"MRT [1, 4] [h]","clearance [1, 4] [mL/min/kg]","half-life [1, 4] [h]",MRT ([1]; oral administration (p.o.)) [h],half-life ([1]; oral administration (p.o.)) [h],"AUCnorm [1, 4] [kg·h/L]",AUCnorm ([1]; oral administration (p.o.)) [kg·h/L],F ([1]; oral administration (p.o.)) [%],AUCnorm ([2]; intravenous administration) [kg·h/L],"clearance ([2]; iv, intravenous administration) [mL/min/kg]","MRT ([2]; iv, intravenous administration) [h]","half-life ([2]; iv, intravenous administration) [h]","MRT ([2]; po, oral administration (p.o.)) [h]","half-life ([2]; po, oral administration (p.o.)) [h]",AUCnorm ([2]; oral administration (p.o.)) [kg·h/L],F ([2]; oral administration (p.o.)) [%],pEC50 [3],MEC (minimum effective concentration) [3] [nM]
,"CC(C)CN1CCN(c2ccc(-c3ccc(Cl)cc3N3CCC[C@@H](n4ncc(C(=O)O)c4C(F)F)C3)cc2)CC1 (single isomer, unassigned) [Example 2, 1-[1-{4-Chloro-4′-[4-(2-methylpropyl)piperazin-1-yl][1,1′-biphenyl]-2-yl}piperidin-3-yl]-5-(difluoromethyl)-1H-pyrazole-4-carboxylic acid]",25.6,0.167,17.7,21.3,14,81.7,67.7,82.8,7.08,2.33,3.44,3.13,6.23,3.96,3.77,53.3,8.07,1.0
2.2,"CC(C)CN1CCN(c2ccc(-c3ccc(Cl)cc3N3CCCC(n4ncc(C(=O)O)c4C(F)(F)F)C3)cc2)CC1 (single isomer, unassigned) [Example 9, 1-[1-{4-chloro-4′-[4-(2-methylpropyl)piperazin-1-yl][1,1′-biphenyl]-2-yl}piperidin-3-yl]-5-(trifluoromethyl)-1H-pyrazole-4-carboxylic acid hydrochloride]",10.3,0.5,7.86,13.7,9.28,37.4,31.7,84.8,5.48,3,5.83,4.1,8.51,4.96,4.50,82.1,7.96,
